26 compounds from US8846949B2, “Pyrrolopyrazoles as N-type calcium channel blockers” (Janssen Pharmaceutica NV, priority 2012, dated 2014) can be followed below.

The target of this experiment is T1, N-type calcium channel α1B (Cav2.2), β3 and α2δ subunits (Homo sapiens, UniProt Q00975).
T1 construct: expressed in transfected cells
Description: Functional assay, antagonism of N-type calcium channel (FDSS calcium mobilization response to KCl depolarization). Format: cell-based. The note with it: for IC50: HEK stable cell line, 50 mM KCl depolarization, six-point concentration-response; for inhibition at 1 µM: 1 μM compound; for inhibition at 1 µM / inhibition at 0.33 µM: FDSS, 50 mM KCl; for inhibition at 0.33 µM: 0.33 μM compound. How it is done: A stable cell line (HEK parent) co-expressing the α1B (Cav2.2), β3 and α2δ subunits of the N-type calcium channel subunits was used. These cells were routinely grown as monolayers in low glucose-containing Dulbecco's Modified Eagle Medium supplemented with 10% FBS, 2 mM L-glutamine, 100 I.U./mL penicillin, 100 μg/mL streptomycin, 400 μg/mL G418 and 200 μg/mL Zeocin (split ratio=1:5). Cells were maintained in 5% CO2 at 37° C. Compounds of Formula (I) were prepared as 10 mM stocks in DMSO from neat compound, if available. Otherwise, the 5 or 10 mM DMSO stock solutions provided in-house were used.
Calcium mobilization responses to KCl depolarization were evaluated by measuring the intensity of calcium-mediated fluorescent signal in the presence of BD Calcium Assay Dye (BD Biosciences, Franklin Lakes, N.J., U.S.A.), utilizing a Functional Drug Screening System (FDSS) by Hamamatsu Corporation (Bridgewater, N.J. U.S.A.).
Twenty-four hr prior to assay, cells were seeded in clear-base poly-D-lysine-coated 384-well plates (BD Biosciences) at a density of 5,000 cells per well in culture medium and grown overnight in 5% CO2 at 37° C. On the day of assay, growth media were removed, and cells were loaded with BD calcium assay dye (BD Biosciences) for 35 min at 37° C. under 5% CO2 and then for 25 min at room temp. Utilizing the FDSS, cells were exposed to representative compounds of Formula (I) at varying concentrations, and intracellular calcium was measured for 5 min prior to the addition of 50 mM KCl for an additional 3 min of measurement.
IC50 values for representative compounds of Formula (I) were determined from six-point concentration-response experiments and represent the concentration of said compound required to inhibit 50% of the maximal response. Maximal fluorescence intensity (FI) achieved upon addition of 50 mM KCl was exported from the FDSS software and further analyzed using GraphPad Prism 3.02 (Graph Pad Software Inc., San Diego, Calif., U.S.A.). Data were normalized to the maximum average counts from quadruplicate wells for each condition in the presence of 50 mM KCl and to the minimum average counts in the presence of buffer. Theoretical curves were generated using nonlinear regression curve-fitting analysis of either sigmoidal concentration-response or sigmoidal concentration-response (variable slope), and the IC50 values with the best-fit curve determined by GraphPad Prism were reported.

T1 sequence (Q00975 whole entry): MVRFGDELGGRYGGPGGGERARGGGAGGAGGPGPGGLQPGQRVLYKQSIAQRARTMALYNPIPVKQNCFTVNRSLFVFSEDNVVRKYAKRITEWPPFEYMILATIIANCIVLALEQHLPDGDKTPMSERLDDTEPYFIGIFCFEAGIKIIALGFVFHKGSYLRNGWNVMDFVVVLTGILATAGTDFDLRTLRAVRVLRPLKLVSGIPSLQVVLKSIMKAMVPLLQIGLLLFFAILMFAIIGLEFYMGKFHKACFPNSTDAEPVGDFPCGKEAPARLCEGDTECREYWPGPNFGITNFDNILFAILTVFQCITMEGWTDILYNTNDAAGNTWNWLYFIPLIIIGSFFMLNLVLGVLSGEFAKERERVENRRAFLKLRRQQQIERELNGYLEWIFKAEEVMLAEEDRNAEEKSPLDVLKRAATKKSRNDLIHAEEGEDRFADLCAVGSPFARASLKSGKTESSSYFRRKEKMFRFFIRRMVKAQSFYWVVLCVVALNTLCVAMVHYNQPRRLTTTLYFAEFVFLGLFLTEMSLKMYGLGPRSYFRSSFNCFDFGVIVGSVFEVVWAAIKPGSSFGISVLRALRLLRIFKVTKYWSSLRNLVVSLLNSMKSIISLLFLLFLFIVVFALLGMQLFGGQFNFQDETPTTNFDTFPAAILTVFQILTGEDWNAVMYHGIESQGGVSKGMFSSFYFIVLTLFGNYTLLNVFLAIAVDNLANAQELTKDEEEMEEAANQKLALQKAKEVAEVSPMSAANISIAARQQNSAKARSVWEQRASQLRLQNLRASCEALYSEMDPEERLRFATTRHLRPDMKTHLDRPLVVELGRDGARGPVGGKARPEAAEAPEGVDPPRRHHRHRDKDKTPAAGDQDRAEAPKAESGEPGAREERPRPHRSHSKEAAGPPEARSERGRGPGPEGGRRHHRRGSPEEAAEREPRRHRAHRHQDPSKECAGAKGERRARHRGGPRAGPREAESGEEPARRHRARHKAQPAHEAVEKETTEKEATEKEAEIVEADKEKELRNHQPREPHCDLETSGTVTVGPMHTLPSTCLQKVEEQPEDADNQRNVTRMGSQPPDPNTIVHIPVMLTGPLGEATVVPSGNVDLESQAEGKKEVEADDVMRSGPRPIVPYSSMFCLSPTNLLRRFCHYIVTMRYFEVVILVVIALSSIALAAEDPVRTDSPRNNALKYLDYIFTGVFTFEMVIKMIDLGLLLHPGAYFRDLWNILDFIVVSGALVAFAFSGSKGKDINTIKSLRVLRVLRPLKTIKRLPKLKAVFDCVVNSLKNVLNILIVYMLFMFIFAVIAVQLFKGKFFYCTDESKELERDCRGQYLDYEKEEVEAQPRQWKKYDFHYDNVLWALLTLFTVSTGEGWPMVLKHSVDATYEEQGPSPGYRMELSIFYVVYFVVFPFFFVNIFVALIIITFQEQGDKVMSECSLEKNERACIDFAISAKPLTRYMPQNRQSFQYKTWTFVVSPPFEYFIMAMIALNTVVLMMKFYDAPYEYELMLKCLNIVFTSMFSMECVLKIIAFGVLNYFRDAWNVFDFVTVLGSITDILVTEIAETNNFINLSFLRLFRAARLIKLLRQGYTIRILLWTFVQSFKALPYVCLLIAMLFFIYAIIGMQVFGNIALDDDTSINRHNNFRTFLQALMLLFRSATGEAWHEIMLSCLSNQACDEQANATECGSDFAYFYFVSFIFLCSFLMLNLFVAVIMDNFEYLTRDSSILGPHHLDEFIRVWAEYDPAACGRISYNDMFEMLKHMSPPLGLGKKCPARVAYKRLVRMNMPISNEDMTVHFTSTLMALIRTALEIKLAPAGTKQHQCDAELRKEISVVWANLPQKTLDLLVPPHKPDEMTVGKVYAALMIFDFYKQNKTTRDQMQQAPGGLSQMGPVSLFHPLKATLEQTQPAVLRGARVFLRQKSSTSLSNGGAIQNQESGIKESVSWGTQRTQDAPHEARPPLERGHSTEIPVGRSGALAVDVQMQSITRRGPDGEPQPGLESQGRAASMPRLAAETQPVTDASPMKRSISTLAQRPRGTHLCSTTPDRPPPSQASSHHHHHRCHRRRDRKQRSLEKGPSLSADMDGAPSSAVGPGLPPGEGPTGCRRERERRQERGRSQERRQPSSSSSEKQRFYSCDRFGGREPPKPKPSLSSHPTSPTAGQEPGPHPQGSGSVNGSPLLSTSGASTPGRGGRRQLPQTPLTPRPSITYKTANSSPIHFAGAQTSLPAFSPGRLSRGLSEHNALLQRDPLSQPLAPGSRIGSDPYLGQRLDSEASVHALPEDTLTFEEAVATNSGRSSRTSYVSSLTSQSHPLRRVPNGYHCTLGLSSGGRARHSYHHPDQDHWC
T1 sequence (P54284 whole entry partner): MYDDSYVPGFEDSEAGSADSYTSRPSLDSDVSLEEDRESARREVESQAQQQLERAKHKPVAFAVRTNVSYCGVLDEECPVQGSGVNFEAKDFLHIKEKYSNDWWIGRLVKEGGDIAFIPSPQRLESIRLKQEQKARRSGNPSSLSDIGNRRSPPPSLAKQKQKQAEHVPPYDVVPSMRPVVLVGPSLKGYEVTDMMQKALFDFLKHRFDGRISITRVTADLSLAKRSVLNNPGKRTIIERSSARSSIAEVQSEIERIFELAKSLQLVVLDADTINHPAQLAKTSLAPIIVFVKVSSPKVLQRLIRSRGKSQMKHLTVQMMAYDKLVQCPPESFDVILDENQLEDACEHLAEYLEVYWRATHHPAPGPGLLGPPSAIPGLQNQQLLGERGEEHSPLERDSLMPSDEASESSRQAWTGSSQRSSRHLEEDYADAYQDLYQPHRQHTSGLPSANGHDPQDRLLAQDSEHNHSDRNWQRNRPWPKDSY
T1 sequence (P54289 25-956 partner limits assumed): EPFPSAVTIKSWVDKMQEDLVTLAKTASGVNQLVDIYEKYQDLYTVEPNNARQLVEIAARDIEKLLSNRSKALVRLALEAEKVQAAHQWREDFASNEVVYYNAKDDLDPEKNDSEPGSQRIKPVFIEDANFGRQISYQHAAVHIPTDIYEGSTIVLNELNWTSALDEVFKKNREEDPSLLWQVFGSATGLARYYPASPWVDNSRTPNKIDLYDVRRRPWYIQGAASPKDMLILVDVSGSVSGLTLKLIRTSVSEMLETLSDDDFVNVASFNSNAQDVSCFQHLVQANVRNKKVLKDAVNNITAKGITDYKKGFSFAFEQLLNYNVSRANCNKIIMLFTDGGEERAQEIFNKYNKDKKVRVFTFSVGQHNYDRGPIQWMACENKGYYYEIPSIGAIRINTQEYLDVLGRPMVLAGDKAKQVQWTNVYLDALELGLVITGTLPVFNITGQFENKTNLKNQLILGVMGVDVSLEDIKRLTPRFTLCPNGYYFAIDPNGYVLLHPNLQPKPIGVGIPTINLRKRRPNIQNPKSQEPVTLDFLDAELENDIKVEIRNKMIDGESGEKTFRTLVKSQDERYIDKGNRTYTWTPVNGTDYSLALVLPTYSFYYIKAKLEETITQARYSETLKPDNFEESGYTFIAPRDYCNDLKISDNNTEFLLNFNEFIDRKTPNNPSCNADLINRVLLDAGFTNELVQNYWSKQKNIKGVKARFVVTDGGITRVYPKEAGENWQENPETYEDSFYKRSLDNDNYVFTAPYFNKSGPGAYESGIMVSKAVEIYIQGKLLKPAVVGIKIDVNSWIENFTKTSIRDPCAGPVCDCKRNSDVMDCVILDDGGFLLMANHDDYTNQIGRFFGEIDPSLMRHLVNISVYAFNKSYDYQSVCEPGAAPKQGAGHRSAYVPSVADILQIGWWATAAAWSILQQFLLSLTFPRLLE
T1 sequence (P54289 957-1103 partner limits assumed): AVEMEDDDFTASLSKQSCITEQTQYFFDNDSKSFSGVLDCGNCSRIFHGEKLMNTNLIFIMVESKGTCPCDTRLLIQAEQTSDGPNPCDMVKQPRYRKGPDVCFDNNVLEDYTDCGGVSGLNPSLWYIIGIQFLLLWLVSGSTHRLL

As for `COc1ccccc1-n1nc2c(c1-c1ccc(Cl)cc1)CN(C(=O)N(C)C)C2` [Cpd 34, 3-(4-Chlorophenyl)-2-(2-methoxyphenyl)-N,N-dimethyl-2,6-dihydropyrrolo[3,4-c]pyrazole-5(4H)-carboxamide], the concentration for half-maximal inhibition (IC50) was 170 nM. Still for that read-out and setting: as for `O=C(N1Cc2nn(-c3ccccc3OC(F)(F)F)c(-c3ccc(Cl)cc3)c2C1)C(F)(F)F` [Cpd 21, 3-(4-Chlorophenyl)-5-(trifluoroacetyl)-2-[2-(trifluoromethoxy)phenyl]-2,4,5,6-tetrahydropyrrolo[3,4-c]pyrazole], the figure is 300 nM.

On to `N#Cc1ccc(N2Cc3nn(-c4ccccc4OC(F)(F)F)c(-c4ccc(Cl)cc4)c3C2)cc1` [Cpd 25, 4-[3-(4-Chlorophenyl)-2-[2-(trifluoromethoxy)phenyl]-2,6-dihydropyrrolo[3,4-c]pyrazol-5(4H)-yl]benzonitrile], for which the inhibition at 1 µM is 57%. In the case of `CN(C)S(=O)(=O)N1Cc2nn(-c3ccccc3OCC(F)(F)F)c(-c3ccc(Cl)cc3)c2C1` [Cpd 90, 3-(4-Chlorophenyl)-N,N-dimethyl-2-[2-(2,2,2-trifluoroethoxy)phenyl]-2,6-dihydropyrrolo[3,4-c]pyrazole-5(4H)-sulfonamide], the inhibition at 0.33 µM came out at 80% and the IC50 turned out to be 85 nM. Consider `CCc1ccccc1-n1nc2c(c1-c1ccc(Cl)cc1)CN(C(=O)c1cccnc1)C2` [Cpd 4, 3-(4-Chlorophenyl)-2-(2-ethylphenyl)-5-(pyridin-3-ylcarbonyl)-2,4,5,6-tetrahydropyrrolo[3,4-c]pyrazole], for which the IC50 worked out at 200 nM.

On to `COc1ccc(-n2nc3c(c2-c2ccc(Cl)cc2)CN(S(C)(=O)=O)C3)c(F)c1` [Cpd 78, 3-(4-Chlorophenyl)-2-(2-fluoro-4-methoxyphenyl)-5-(methylsulfonyl)-2,4,5,6-tetrahydropyrrolo[3,4-c]pyrazole], for which the inhibition at 0.33 µM was 62% and the IC50 amounted to 200 nM. For `COc1ccccc1-n1nc2c(c1-c1cnc3ccccc3c1)CN(S(=O)(=O)C(C)C)C2` [Cpd 93, 3-{2-(2-Methoxyphenyl)-5-[(1-methylethyl)sulfonyl]-2,4,5,6-tetrahydropyrrolo[3,4-c]pyrazol-3-yl}quinoline], the 50% inhibitory concentration (IC50) came out at 100 nM. With `COc1ccccc1-n1nc2c(c1-c1ccc(Cl)cc1)CN(S(=O)(=O)CCOc1ccccc1)C2` [Cpd 43, 3-(4-Chlorophenyl)-2-(2-methoxyphenyl)-5-[(2-phenoxyethyl)sulfonyl]-2,4,5,6-tetrahydropyrrolo[3,4-c]pyrazole], the 50% inhibitory concentration (IC50) was determined as 100 nM.

With `COc1ccccc1-n1nc2c(c1-c1ccc(OC(C)C)nc1)CN(S(=O)(=O)C(C)C)C2` [Cpd 96, 2-(2-Methoxyphenyl)-3-[6-(1-methylethoxy)pyridin-3-yl]-5-[(1-methylethyl)sulfonyl]-2,4,5,6-tetrahydropyrrolo[3,4-c]pyrazole], the inhibition at 0.33 µM was determined as 79% and the half-maximal inhibitory concentration (IC50) came out at 130 nM. Turning to `COc1ccccc1-n1nc2c(c1-c1ccc(Cl)cc1)CN(S(=O)(=O)CCN1C(=O)CCC1=O)C2` [Cpd 42, 1-(2-{[3-(4-Chlorophenyl)-2-(2-methoxyphenyl)-2,6-dihydropyrrolo[3,4-c]pyrazol-5(4H)-yl]sulfonyl}ethyl)pyrrolidine-2,5-dione], the 50% inhibitory concentration (IC50) stood at 48 nM. On the same count and under the same terms, the same measure for `CC(C)(C)OC(=O)N1Cc2nn(-c3ccccc3OC(F)(F)F)c(-c3ccc(Cl)cc3)c2C1` [Cpd 19, tert-Butyl 3-(4-chlorophenyl)-2-[2-(trifluoromethoxy)phenyl]-2,6-dihydropyrrolo[3,4-c]pyrazole-5(4H)-carboxylate]: 300 nM; for `CCc1ccccc1-n1nc2c(c1-c1ccc(Cl)cc1)CN(C(=O)CNS(C)(=O)=O)C2` [Cpd 12, N-{2-[3-(4-Chlorophenyl)-2-(2-ethylphenyl)-2,6-dihydropyrrolo[3,4-c]pyrazol-5(4H)-yl]-2-oxoethyl}methanesulfonamide]: 520 nM. With `COc1ccc(-n2nc3c(c2-c2ccc(Cl)cc2)CN(S(=O)(=O)N(C)C)C3)c(C)c1` [Cpd 69, 3-(4-Chlorophenyl)-2-(4-methoxy-2-methylphenyl)-N,N-dimethyl-2,6-dihydropyrrolo[3,4-c]pyrazole-5(4H)-sulfonamide], the inhibition at 0.33 µM stood at 69% and the IC50 amounted to 130 nM. For `CCOc1ccccc1-n1nc2c(c1-c1ccc(Cl)cc1)CN(S(=O)(=O)Cc1ccccc1)C2` [Cpd 53, 5-(Benzylsulfonyl)-3-(4-chlorophenyl)-2-(2-ethoxyphenyl)-2,4,5,6-tetrahydropyrrolo[3,4-c]pyrazole], the IC50 is 7 nM.

`CCc1ccccc1-n1nc2c(c1-c1ccc(Cl)cc1)CN(C(=O)OC(C)(C)C)C2` [Cpd 1, tert-Butyl 3-(4-chlorophenyl)-2-(2-ethylphenyl)-2,6-dihydropyrrolo[3,4-c]pyrazole-5(4H)-carboxylate]: the IC50 came to 180 nM.

On to `COC(=O)c1ccc(N2Cc3nn(-c4ccccc4OC(F)(F)F)c(-c4ccc(Cl)cc4)c3C2)cc1` [Cpd 24, Methyl 4-[3-(4-chlorophenyl)-2-[2-(trifluoromethoxy)phenyl]-2,6-dihydropyrrolo[3,4-c]pyrazol-5(4H)-yl]benzoate], for which the inhibition at 1 µM was 64%.

On to `O=S(=O)(NCCN1CCOCC1)c1ccc(N2Cc3nn(-c4ccccc4OC(F)(F)F)c(-c4ccc(Cl)cc4)c3C2)cc1` [Cpd 26, 4-[3-(4-Chlorophenyl)-2-[2-(trifluoromethoxy)phenyl]-2,6-dihydropyrrolo[3,4-c]pyrazol-5(4H)-yl]-N-(2-morpholin-4-ylethyl)benzenesulfonamide], for which the inhibition at 1 µM stood at 57%. Consider `CC(C)(C)OC(=O)NCC(=O)N1Cc2nn(-c3ccccc3C(F)(F)F)c(-c3ccc(Cl)cc3)c2C1` [Cpd 18, tert-Butyl{2-[3-(4-chlorophenyl)-2-[2-(trifluoromethyl)phenyl]-2,6-dihydropyrrolo[3,4-c]pyrazol-5(4H)-yl]-2-oxoethyl}carbamate], for which the IC50 stood at 480 nM.

Consider `CC(C)Oc1ccccc1-n1nc2c(c1-c1ccc(Cl)cc1)CN(S(=O)(=O)N(C)C)C2` [Cpd 63, 3-(4-Chlorophenyl)-N,N-dimethyl-2-[2-(1-methylethoxy)phenyl]-2,6-dihydropyrrolo[3,4-c]pyrazole-5(4H)-sulfonamide], for which the IC50 was 3 nM. On the same count and under the same terms, as for `COc1ccccc1-n1nc2c(c1-c1ccc(Cl)cc1)CN(S(=O)(=O)Cc1ccccc1)C2` [Cpd 39, 5-(Benzylsulfonyl)-3-(4-chlorophenyl)-2-(2-methoxyphenyl)-2,4,5,6-tetrahydropyrrolo[3,4-c]pyrazole], the figure is 27 nM.

For `COc1ccccc1-n1nc2c(c1-c1ccc(C)nc1)CN(S(=O)(=O)C(C)C)C2` [Cpd 94, 2-(2-Methoxyphenyl)-5-[(1-methylethyl)sulfonyl]-3-(6-methylpyridin-3-yl)-2,4,5,6-tetrahydropyrrolo[3,4-c]pyrazole], the inhibition at 0.33 µM was determined as 46%. In the case of `CCc1ccccc1-n1nc2c(c1-c1ccc(Cl)cc1)CN(C(=O)c1cc(C)on1)C2` [Cpd 9, 3-(4-Chlorophenyl)-2-(2-ethylphenyl)-5-[(5-methylisoxazol-3-yl)carbonyl]-2,4,5,6-tetrahydropyrrolo[3,4-c]pyrazole], the inhibition at 1 µM is 63%. For `CS(=O)(=O)N1Cc2nn(-c3ccccc3C(F)(F)F)c(-c3ccc(Cl)cc3)c2C1` [Cpd 15, 3-(4-Chlorophenyl)-5-(methylsulfonyl)-2-[2-(trifluoromethyl)phenyl]-2,4,5,6-tetrahydropyrrolo[3,4-c]pyrazole], the IC50 was 280 nM. As for `CCc1ccccc1-n1nc2c(c1-c1ccc(Cl)cc1)CN(C(=O)c1ccccn1)C2` [Cpd 7, 3-(4-Chlorophenyl)-2-(2-ethylphenyl)-5-(pyridin-2-ylcarbonyl)-2,4,5,6-tetrahydropyrrolo[3,4-c]pyrazole], the inhibition at 1 µM was found to be 58%. Take `COc1cc(C)ccc1-n1nc2c(c1-c1ccc(Cl)cc1)CN(S(=O)(=O)C(C)C)C2` [Cpd 75, 3-(4-Chlorophenyl)-2-(2-methoxy-4-methylphenyl)-5-[(1-methylethyl)sulfonyl]-2,4,5,6-tetrahydropyrrolo[3,4-c]pyrazole]: the inhibition at 0.33 µM was determined as 93% and the IC50 came to 32 nM.

Turning to `COc1ccc(-n2nc3c(c2-c2ccc(Cl)cc2)CN(S(=O)(=O)C(C)C)C3)c(C)c1` [Cpd 67, 3-(4-Chlorophenyl)-2-(4-methoxy-2-methylphenyl)-5-[(1-methylethyl)sulfonyl]-2,4,5,6-tetrahydropyrrolo[3,4-c]pyrazole], the inhibition at 0.33 µM turned out to be 61% and the concentration for half-maximal inhibition (IC50) turned out to be 190 nM.
